Target: T1, human apelin receptor (APJ, AGTRL-one, APLNR) (Homo sapiens, UniProt P35414)
T1 construct: host or cells: Chinese hamster ovary cells, stably integrated receptor
T1 sequence (P35414 1-380): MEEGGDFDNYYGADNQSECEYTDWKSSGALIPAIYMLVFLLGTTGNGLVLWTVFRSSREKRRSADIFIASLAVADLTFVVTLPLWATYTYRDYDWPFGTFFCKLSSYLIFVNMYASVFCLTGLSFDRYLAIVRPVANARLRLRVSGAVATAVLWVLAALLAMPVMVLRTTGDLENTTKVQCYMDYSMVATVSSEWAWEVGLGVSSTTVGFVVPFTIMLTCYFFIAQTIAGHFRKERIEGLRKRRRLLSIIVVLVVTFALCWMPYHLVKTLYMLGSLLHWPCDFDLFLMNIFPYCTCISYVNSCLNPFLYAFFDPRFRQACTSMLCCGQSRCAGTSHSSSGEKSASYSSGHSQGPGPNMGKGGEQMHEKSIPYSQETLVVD
Assay: cell-based cAMP TR-FRET assay of apelin receptor activation
Details: CHO cells expressing human APJ, forskolin-stimulated cAMP, 0.5 h incubation, 50% of control (apelin-13, 1 nM) response; read-out: Potency Category (EC50)
Method: The assays disclosed herein were performed using cell lines from DiscoveX, Inc. Biological activity was determined to the cell—based assay. This assay detects activation of the receptor by reporting on intracellular cyclic adenosine monophosphate (cAMP) level. Chinese hamster ovary cells engineered to express the stably integrated human apelin receptor (APJ, AGTRL—one, APLNR), pleaded into the wells of the microtiter plate. Cells were stimulated with […] to increase intracellular cyclic AMP. Immediately following, compounds were added to the range of final concentrations 0.0-100 μM, in DMSO (not to exceed a final DMSO concentration greater than 1% ν/ν), and allowed to incubate with the cells for 0.5 h. At the end of the incubation, cells were lysed to stop APJ signaling and cAMP was quantified using a commercially available competitive immunoassay kit that applies homogenous time—resolved florescence energy transfer (TR—FRET). The assay is based on the competition between a europium (Eu) chelate—labeled cAMP donor tracer and cellular cAMP for binding sites on a cAMP—specific monoclonal antibody labeled with an acceptor fluorophore. When antibodies are bound to the cAMP tracer light emissions at 320 nm stimulate the energy transfer from the donor to the acceptor, which in turn emits light at 665 nm. In the presence of competitive unlabeled cAMP (derived from the activity of the receptor or forskolin-stimulated production of cAMP), the labelled cAMP tracer is dissociated from the cAMP antibody, resulting in a loss of FRET signal. The amount of light emitted by the FRET is inversely proportional to the cAMP generated by the cell/receptor system. Potency and efficacy at APJ are reported in reference to the canonical APJ receptor agonist apelin—13 when tested at 1 nM. […] Compound efficacy (% response) is reported as a percentage of the maximal apein-13 response at 1 nM (control). Potencies were calculated by fitting a […] logistic curve to concentration response consisting of at least 10 discrete data points spanning effective range of the compounds in the cell-based assay that measures cAMP. […] Category B is 200-500 nM; Category C is 100-200 nM; Category D is 50-100 nM; and Category E is <50 nM.

| EC50 | Structure (SMILES) |
| --- | --- |
| > 0.5 µM | CCS(=O)(=O)c1ccc(C(Oc2ccc(OC)cc2)C(=O)Nc2nc3ccc4c(c3s2)OCO4)cc1 (stereo not drawn) |
| 0.1 to 0.2 µM | CCS(=O)(=O)c1ccc([C@@H](Oc2ccc(C#N)cc2)C(=O)Nc2nc3cc(OC)c(OC)cc3s2)cc1 |
| > 0.5 µM | CCS(=O)(=O)c1ccc(C(Nc2ccccc2OC)C(=O)Nc2nc3cc(OC)c(OC)cc3s2)cc1 (stereo not drawn) |
| > 0.5 µM | CCS(=O)(=O)c1ccc(C(OCCCOC)C(=O)Nc2nc3cc(OC)c(OC)cc3s2)cc1 (stereo not drawn) |
| > 0.5 µM | COc1cc2nc(NC(=O)C(Oc3ccc(C#N)cc3)c3ccc(C(=O)O)cc3)sc2cc1OC (stereo not drawn) |
| 0.1 to 0.2 µM | COc1cc2nc(NC(=O)C(Oc3ccc(C#N)cc3)c3ccccc3)sc2cc1OC (stereo not drawn) |
| > 0.5 µM | CCS(=O)(=O)c1ccc(C(C(=O)Nc2nc3cc(OC)c(OC)cc3s2)N(C)C)cc1 (stereo not drawn) |
| 0.1 to 0.2 µM | COc1cc2nc(NC(=O)C(Oc3ccc(C#N)cc3)c3ccc(C(=O)NCCN4CCOCC4)cc3)sc2cc1OC (stereo not drawn) |
| < 0.05 µM | CCS(=O)(=O)c1ccc(C(Oc2ccc(C#N)cc2F)C(=O)Nc2nc3cc(OC)c(OC)cc3s2)cc1 (stereo not drawn) |
| > 0.5 µM | CCS(=O)(=O)c1ccc(C(Oc2ccccc2Cl)C(=O)Nc2nc3cc(OC)c(OC)cc3s2)cc1 (stereo not drawn) |
| < 0.05 µM | COc1cc2nc(NC(=O)C(Oc3ccc(C#N)cc3)c3ccc(OCCN(C)C)cc3)sc2cc1OC (stereo not drawn) |
| < 0.05 µM | COc1cc2nc(NC(=O)C(Oc3ccc(C#N)cc3)c3ccc(S(=O)(=O)C(C)C)cc3)sc2cc1OC (stereo not drawn) |
| < 0.05 µM | CCOc1ccc(C(Oc2ccc(C#N)cc2)C(=O)Nc2nc3cc(OC)c(OC)cc3s2)cc1 (stereo not drawn) |
| > 0.5 µM | COc1cc2nc(NC(=O)Cc3cccc(C(=O)N(C)C)c3)sc2cc1OC |
| 0.2 to 0.5 µM | CCS(=O)(=O)c1cccc(C(Oc2ccc(C#N)cc2)C(=O)Nc2nc3cc(OC)c(OC)cc3s2)c1 (stereo not drawn) |
| > 0.5 µM | CCS(=O)(=O)c1ccc(C(Oc2ccc(C#N)cc2)C(=O)Nc2nc3ccc(OC)cc3s2)cc1 (stereo not drawn) |
| > 0.5 µM | COc1ccc(OC(C(=O)Nc2nc3cc(OC)c(OC)cc3s2)c2cccc(S(=O)(=O)c3ccc(F)cc3)c2)cc1 (stereo not drawn) |
| 0.1 to 0.2 µM | COc1ccc(S(=O)(=O)c2ccccc2C(Oc2ccc(C#N)cc2)C(=O)Nc2nc3cc(OC)c(OC)cc3s2)cc1 (stereo not drawn) |
| 0.2 to 0.5 µM | COc1cc2nc(NC(=O)C(Oc3ccc(C#N)cc3)c3ccc(C(=O)NCCN4CCOCC4)cc3)oc2cc1OC (stereo not drawn) |
| > 0.5 µM | CCS(=O)(=O)c1ccc(C(OCc2ccccc2)C(=O)Nc2nc3cc(OC)c(OC)cc3s2)cc1 (stereo not drawn) |
| > 0.5 µM | CCS(=O)(=O)c1ccc(C(Oc2ccc(C#N)cc2)C(=O)Nc2nc3cc(OCC4CC4)c(OC)cc3s2)cc1 (stereo not drawn) |
| > 0.5 µM | CCS(=O)(=O)c1ccc(C(Oc2ccc(C#N)cc2)C(=O)Nc2nc3cc(F)c(OC)cc3s2)cc1 (stereo not drawn) |
| > 0.5 µM | CCS(=O)(=O)c1ccc(C(Oc2ccc(C#N)cc2)C(=O)Nc2nc3ccc(OCCN4CCN(C)CC4)cc3s2)cc1 (stereo not drawn) |

| EC50 | Structure (SMILES) |
| --- | --- |
| > 0.5 µM | CCS(=O)(=O)c1ccc(C(C(=O)Nc2nc3cc(OC)c(OC)cc3s2)N2CCCCC2)cc1 (stereo not drawn) |
| > 0.5 µM | COc1cc2nc(NC(=O)Cc3ccc(C(=O)O)cc3)sc2cc1OC |
| > 0.5 µM | CCS(=O)(=O)c1ccc(CC(=O)Nc2nc3cc4c(cc3s2)OCCO4)cc1 |
| > 0.5 µM | CCS(=O)(=O)c1ccc(C(Oc2ccc(C#N)cc2)C(=O)Nc2nc3cnc(OC)cc3s2)cc1 (stereo not drawn) |
| > 0.5 µM | CCS(=O)(=O)c1ccc(C(Oc2ccc(C#N)cc2)C(=O)Nc2nc3c4c(ccc3s2)OCO4)cc1 (stereo not drawn) |
| 0.05 to 0.1 µM | COCCNC(=O)c1ccc(C(Oc2ccc(C#N)cc2)C(=O)Nc2nc3cc(OC)c(OC)cc3o2)cc1 (stereo not drawn) |
| > 0.5 µM | CCS(=O)(=O)c1ccc(C(OC2CCCCC2)C(=O)Nc2nc3cc(OC)c(OC)cc3s2)cc1 (stereo not drawn) |
| < 0.05 µM | CCS(=O)(=O)c1ccc(C(Oc2ccc(C#N)cc2Cl)C(=O)Nc2nc3cc(OC)c(OC)cc3s2)cc1 (stereo not drawn) |
| 0.2 to 0.5 µM | COc1cc2nc(NC(=O)C(Oc3ccc(C#N)cc3)c3ccc(F)cc3)sc2cc1OC (stereo not drawn) |
| 0.2 to 0.5 µM | CCS(=O)(=O)c1ccc(C(Oc2ccc(C#N)cc2)C(=O)Nc2nc3cc(Cl)c(OC)cc3s2)cc1 (stereo not drawn) |
| > 0.5 µM | CCS(=O)(=O)c1ccc(CC(=O)Nc2nc3cc(OC)c(OC)cc3o2)cc1 |
| > 0.5 µM | CCS(=O)(=O)c1ccc(C(Oc2ccc(OC)cc2)C(=O)Nc2nc3ccc4c(c3s2)OCCO4)cc1 (stereo not drawn) |
| 0.2 to 0.5 µM | COc1cc2nc(NC(=O)C(Oc3ccc(C#N)cc3)c3ccc(C(=O)NCCN4CCCC4)cc3)sc2cc1OC (stereo not drawn) |
| 0.05 to 0.1 µM | COc1cc2nc(NC(=O)C(Oc3ccc(C#N)cc3)c3ccc(C)cc3)sc2cc1OC (stereo not drawn) |
| > 0.5 µM | CCS(=O)(=O)c1ccc(C(Oc2ccc(C#N)cc2)C(=O)Nc2nc3cc4c(cc3s2)OCCO4)cc1 (stereo not drawn) |
| 0.2 to 0.5 µM | COCCNS(=O)(=O)c1ccc(C(Oc2ccc(C#N)cc2)C(=O)Nc2nc3cc(OC)c(OC)cc3s2)cc1 (stereo not drawn) |
| 0.2 to 0.5 µM | CCS(=O)(=O)c1ccc(C(Oc2ccc(C(C)C)cc2)C(=O)Nc2nc3cc(OC)c(OC)cc3s2)cc1 (stereo not drawn) |
| > 0.5 µM | CCCOC(C(=O)Nc1nc2cc(OC)c(OC)cc2s1)c1ccc(S(=O)(=O)CC)cc1 (stereo not drawn) |
| > 0.5 µM | CCS(=O)(=O)c1ccc(C(Oc2ccc(OC)cc2)C(=O)Nc2nc3c(OC)ccc(OC)c3s2)cc1 (stereo not drawn) |
| > 0.5 µM | CCS(=O)(=O)c1ccc(C(Oc2ccc(C#N)cc2)C(=O)Nc2nc3cc4c(cc3s2)OCO4)cc1 (stereo not drawn) |
| 0.2 to 0.5 µM | COc1cc2nc(NC(=O)C(Oc3ccc(C#N)cc3)c3ccccc3S(=O)(=O)c3ccc(F)cc3)sc2cc1OC (stereo not drawn) |
| 0.2 to 0.5 µM | CCCc1ccc(OC(C(=O)Nc2nc3cc(OC)c(OC)cc3s2)c2ccc(S(=O)(=O)CC)cc2)cc1 (stereo not drawn) |
| > 0.5 µM | CCS(=O)(=O)c1ccc(C(Oc2ccc(C#N)cc2)C(=O)Nc2nc3ccc(OCCN4CCOCC4)cc3s2)cc1 (stereo not drawn) |

| EC50 | Structure (SMILES) |
| --- | --- |
| 0.2 to 0.5 µM | CCS(=O)(=O)c1ccc([C@H](Oc2ccc(C#N)cc2)C(=O)Nc2nc3cc(OC)c(OC)cc3s2)cc1 |
| 0.2 to 0.5 µM | COc1cc2nc(NC(=O)C(Oc3ccc(C#N)cc3)c3cccc(S(=O)(=O)C(C)C)c3)sc2cc1OC (stereo not drawn) |
| > 0.5 µM | COc1cc2nc(NC(=O)C(Oc3ccc(C#N)cc3)c3cccc(Br)c3)sc2cc1OC (stereo not drawn) |
| 0.2 to 0.5 µM | COc1cc2nc(NC(=O)C(Oc3ccc(C#N)cc3)c3ccc(C(=O)N4CCNCC4)cc3)sc2cc1OC (stereo not drawn) |
| < 0.05 µM | CCS(=O)(=O)c1ccc(C(Oc2ccc(C#N)c(Cl)c2)C(=O)Nc2nc3cc(OC)c(OC)cc3s2)cc1 (stereo not drawn) |
| 0.05 to 0.1 µM | COc1cc2nc(NC(=O)C(Oc3ccc(C#N)cc3)c3cccc(S(=O)(=O)C(C)(C)C)c3)sc2cc1OC (stereo not drawn) |
| > 0.5 µM | COc1cc2nc(NC(=O)Cc3ccc(S(=O)(=O)C(C)C)cc3)sc2cc1OC |
| > 0.5 µM | CCS(=O)(=O)c1ccc(CC(=O)Nc2nc3cc(OC)c(O)cc3[nH]2)cc1 |
| < 0.05 µM | COc1cc2nc(NC(=O)C(Oc3ccc(C#N)cc3)c3ccc(S(=O)(=O)CC4CC4)cc3)sc2cc1OC (stereo not drawn) |
| > 0.5 µM | CCS(=O)(=O)c1ccc(C(C(=O)Nc2nc3cc(OC)c(OC)cc3s2)C2CCCC2)cc1 (stereo not drawn) |
| < 0.05 µM | CCS(=O)(=O)c1ccc(C(Oc2ccc([N+](=O)[O-])cc2)C(=O)Nc2nc3cc(OC)c(OC)cc3s2)cc1 (stereo not drawn) |
| 0.05 to 0.1 µM | CCS(=O)(=O)c1ccc(C(Oc2ccc(C#N)cc2)C(=O)N(C)c2nc3cc(OC)c(OC)cc3s2)cc1 (stereo not drawn) |
| < 0.05 µM | COc1cc2nc(NC(=O)C(Oc3ccc(OCCO)cc3)c3ccc(C#N)cc3)sc2cc1OC (stereo not drawn) |
| 0.2 to 0.5 µM | COc1cc2nc(NC(=O)C(Oc3ccc(C(=O)NCCN4CCCC4)cc3)c3ccc(C#N)cc3)sc2cc1OC (stereo not drawn) |
| < 0.05 µM | COC(=O)c1ccc(OC(C(=O)Nc2nc3cc(OC)c(OC)cc3s2)c2ccc(C#N)cc2)cc1 (stereo not drawn) |
| 0.2 to 0.5 µM | CCS(=O)(=O)c1ccc(C(Oc2ccccc2I)C(=O)Nc2nc3cc(OC)c(OC)cc3s2)cc1 (stereo not drawn) |
| > 0.5 µM | CCS(=O)(=O)c1ccc(C(Oc2ccc(C#N)cc2)C(=O)Nc2nc3cc(C)c(OC)cc3s2)cc1 (stereo not drawn) |
| < 0.05 µM | COc1cc2nc(NC(=O)C(Oc3ccc(C#N)cc3)c3ccc(C(=O)N4CCN(C)CC4)cc3)oc2cc1OC (stereo not drawn) |
| < 0.05 µM | CCS(=O)(=O)c1ccc(C(Oc2ccc(C#N)cc2)C(=O)Nc2nc3ccc(OC)c(OC(C)C)c3s2)cc1 (stereo not drawn) |
| > 0.5 µM | CCS(=O)(=O)c1ccc(C(Nc2cccc(C)c2)C(=O)Nc2nc3cc(OC)c(OC)cc3s2)cc1 (stereo not drawn) |
| 0.05 to 0.1 µM | COc1cc2nc(NC(=O)C(Oc3ccc(C#N)cc3)c3ccc(C(=O)NCCN(C)C)cc3)sc2cc1OC (stereo not drawn) |
| 0.05 to 0.1 µM | COc1cc2nc(NC(=O)C(Oc3ccc(OCCN4CCOCC4)cc3)c3ccc(C#N)cc3)sc2cc1OC (stereo not drawn) |
| > 0.5 µM | CCS(=O)(=O)c1ccc(CC(=O)Nc2nc3cc4c(cc3s2)OCO4)cc1 |

From patent publication US12071414B2, “Apelin receptor agonists and methods of use thereof” (Sanford Burnham Prebys Medical Discovery Institute, priority 2015, dated 2024)
